Results from patent publication US9545367B2, “Cosmetic use of N-heteroarylbisamide analogs and related compounds” (Avon Products, Inc., priority 2011, dated 2017).

How the values were obtained:
Format in all cases: cell-based, human
[1] = test system: Hyaluronic Acid; assay: Skin explant assay, Hyaluronic Acid Binding Protein staining; details: skin explants, 0.025 weight percent, nine days in culture; FIGS. 2A and 2B
Procedure: (§1) Samples of explanted skin tissue were obtained from an abdominal plasty of a person. Samples (33 samples in total) were maintained in tissue culture medium at 37° C. in a humid, 5%-CO2 atmosphere for the duration of the study.
(§2) The skin tissue explants were then distributed into appropriate controls or treated samples in triplicates. The controls received only a vehicle, and the treatment samples received 0.025 weight percent of Analog A disclosed above. The vehicle and Analog A were administered to the controls and treatment samples, respectively, on days 0, 1, 2, 5, and 7.
(§3) After nine days in culture the vehicle and Analog A treated samples were collected and processed for histology and immunostaining Initially, the samples were fixed in buffered formalin for 24 hours. […] Tissue samples were also stained for procollagen I using a Procollagen I rat monoclonal antibody with streptavidin alkaline phosphatase conjugate (Vectastain, Vector labs) and Vector® blue substrate detection system (Vector Laboratories LTD., Peterborough, UK), and hyaluronic acid using biotinylated affinity purified Hyaluronic Acid Binding Protein ((bovine nasal cartilage) Calbiochem, EMD Chemicals USA) and detected using the aforementioned detection system […]

[2] = test system: explanted skin tissue; assay: Skin explant assay, hematoxylin and eosin histology; details: skin explants, 0.025 weight percent, administered days 0, 1, 2, 5, 7; nine days in culture; vs vehicle control; FIG. 1B
Procedure: as §1, §2, §3

[3] = test system: Procollagen 1; assay: Skin explant assay, procollagen I immunostaining; details: skin explants, 0.025 weight percent, nine days in culture; FIGS. 3A and 3B
Procedure: as §1, §2, §3

Cc1cccc(-n2nc(C(C)(C)C)cc2NC(=O)CCCC(=O)NC(C)C(C)C)c1 (stereo not shown) [Analog A]
expression of Hyaluronic Acid in comparison to the vehicle control [1]: increased
cell density throughout the basal epidermis (hematoxylin and eosin stain) [2]: maintained their cell density throughout the basal epidermis
contact with the basal layer (hematoxylin and eosin stain) [2]: good contact with the basal layer
expression of Procollagen 1 in comparison to the vehicle control [3]: increased
